What was measured:
Type in all cases: in vivo
LDLr knockout mice [1] = assay: Liver function marker ALAT in pooled plasma (Examples 1 and 2)
Protocol: (§1) Blood samples were takes in week 0, 3, 6, 9, 15 and 21 after 5 hours of fasting. Blood glucose was measured using hand-held glucometer immediately. Plasma cholesterol and plasma triglyceride levels were assayed immediately in fresh EDTA-plasma. The remainder of the plasma was stored at −80° C. for analysis of insulin and ALAT, and for possible other additional follow-up analysis. Faecal samples were collected over a 48 hour period at cage level in week 0, 9, and 21. Additionally, individual faecal samples were collected in week 21 to allow individual faecal analysis. Total body fat and lean body mass were assessed non-invasively by EchoMR1 in week 0, 9, 15, and 21. Mice were placed in a constraint tube which was then inserted into the EchoMR1 for a period of approximately 30 seconds. During that time, total body fat and lean body mass were calculated and recorded and the mouse was removed from the apparatus.
ALAT levels were measured at baseline, week 9 and week 21 in pooled plasma. Baseline levels were low (11 U/L). Upon HFD feeding, ALAT levels increased to 58 U/L in week 9 and further increased to 187 U/L in week 21 in the HFD group. For comparison, ALAT levels in chow fed mice reached levels of approximately 52 U/L in week 21 (data from other study). […] Also ALAT level in LGG treated mice were lower compared to HFD (66 U/L in week 9 and 124 U/L in week 21). […]

LDLr knockout mice [2] = assay: Fasting blood glucose, plasma insulin and HOMA-IR (Examples 1 and 2)
Protocol: (§2) At t=0 mice were matched into experimental groups based on blood glucose (primary matching parameter) and body weight (secondary matching parameter). The control group received a lard based high fat diet (HFD 45 kcal % from lard; diet D12451 Research Diets, New Brunswick, USA) containing 23.7% w/w protein, 41.4% w/w carbohydrates and 23.6% w/w fat.
as §1, with “Additionally, individual faecal samples were collected in week 21 to allow individual faecal analysis.” left out, “Mice were placed in a constraint tube which was then inserted into the EchoMR1 for a period of approximately 30 seconds.” left out
Blood glucose was measured immediately using a hand-held glucometer. Total plasma cholesterol and triglyceride levels were measured using kits No. 11489437 and 11488872 (Roche Diagnostics, Almere, The Netherlands), respectively. The plasma levels of insulin (Ultrasensitive mouse insulin ELISA, Merdocia, Uppsala, Sweden) were determined by ELISA. […]

LDLr knockout mice [3] = assay: Body weight and food intake in LDLr knockout mice on high fat diet, 21 weeks (Examples 1 and 2, Study 2)
Text: Both the high fat diet and the tested diets with the peptide component, LCPUFA, and LGG were isocaloric. A control diet (low fat, 10% kcal by fat) served as a reference group. The first study, indicated as Study 1 in Table 3 below, compared the mice on the high fat diet, to mice on a high fat diet supplemented with a combination of the peptide component, LCPUFA, and LGG. Whereas, the second study, indicated as Study 2 in Table 3 below, examined the effects on the mice of the individual ingredients.
Example 1 describes the experimental procedures for evaluating metabolic, and cardiovascular risk factors in LDLr knockout mice fed and HFD and supplemented with a peptide component, LCPUFA, and LGG.
The mice used were LDLr knockout mice, which phenotypically express the main risk factors that are characteristic for metabolic syndrome and that are hallmarks of human disease. Experiments were performed to conform to the rules and regulations set forward by the Netherlands Law on Animal Experiments and were approved by a Committee on Animal Experiments (DEC; approval number 3486).
Sixty-seven male LDLr−/− mice (11-18 weeks of age at the start of the experiment) obtained from the breeding facility at TNO were used. […]

LDLr knockout mice [4] = assay: Body composition analysis by EchoMRI (Examples 1 and 2); settings: absolute values
Protocol: as §1
(§3) Example 2 describes the experimental procedures for evaluating metabolic, and cardiovascular risk factors in LDLr knockout mice fed a HFD supplemented with a >500 Da peptide fraction of the Peptide component. The same experimental procedures and methodologies as employed in Example 1 were used in Example 2.

LDLr knockout mice [5] = assay: Fasting plasma cholesterol and triglycerides (Examples 1 and 2)
Protocol: as §2, §1
Blood glucose was measured immediately using a hand-held glucometer. Total plasma cholesterol and triglyceride levels were measured using kits No. 11489437 and 11488872 (Roche Diagnostics, Almere, The Netherlands), respectively. The plasma levels of insulin (Ultrasensitive mouse insulin ELISA, Merdocia, Uppsala, Sweden) were determined by ELISA.
as §3

LDLr knockout mice [6] = assay: Tissue weights at sacrifice, week 21 (Examples 1 and 2); settings: sacrifice after 21 weeks
Protocol: The mice were sacrificed (un-fasted) in week 21. After sacrifice, the following samples were isolated: • Serum Sample by heart puncture • Heart including aortic root (for atherosclerosis analysis) • Aortic arch (thoracic) in −80° C. • Total liver weight, 2 pieces of sinister and caudate lobe in −80° C., medial lobe formalin • Adipose tissue • Sub cutaneous (inguinal): weight, right in −80° C., left in formalin • Epididymal: weight, right in −80° C., left in formalin • Visceral (omental): weight, part in −80° C., part in formalin • Brown adipose tissue weight part in −80° C., part in formalin • Pancreas in −80° C. • Spleen (in formalin) • Kidneys (right in −80° C., left in formalin) • Ileum (last 8 cm before caecum) in −80° C. • Colon (including faeces) in −80° C. • Eyes: left in Davidson formalin, right in −80° C. • Brain (right in −80° C., left in 4% paraformaldehyde
After 21 weeks of dietary treatment, the mice were sacrificed. Tissues were isolated and weighed.
as §3

With Lactobacillus rhamnosus GG [LGG] the ALAT (LDLr knockout mice [1]; week 9, pooled plasma) was 66 U/L, the ALAT (LDLr knockout mice [1]; week 21, pooled plasma) was 124 U/L and the “Fasting blood glucose, difference to HFD control” value (LDLr knockout mice [2]; t=9 weeks, temporary drop in HFD control absent in these groups) was “significant differences”. For the same substance, the “Fasting plasma insulin compared to HFD control” value (LDLr knockout mice [2]; week 21 (NHLL, Peptide component), time not stated for LCPUFA, LGG) was “comparable to the HFD control group”, the “Body weight compared to HFD” value (LDLr knockout mice [3]; after 21 weeks) was “slightly, but not significantly lower compared to HFD” and the Body weight (LDLr knockout mice [3]; after 21 weeks of HFD feeding) was 45.8 ± 5.3 g. The “Total body fat compared to HFD” value (LDLr knockout mice [4]) was “No effects on total body fat”, the “Plasma triglycerides compared to HFD control” value (LDLr knockout mice [5]; NHLL week 9 until week 21, Peptide component all time points) was “slightly, but not significantly lower compared with HFD control” and the “Plasma cholesterol compared to other groups” value (LDLr knockout mice [5]; throughout the study) was “no significant effects on plasma cholesterol”. The Plasma triglycerides (LDLr knockout mice [5]; week 21) was 2.0 ± 1.0 mM, the “Liver weight compared to HFD” value (LDLr knockout mice [6]) was “tended to be lower compared to the HFD” and the “Adipose tissue weights compared to HFD” value (LDLr knockout mice [6]; three depots) was “comparable to HFD”.

— patent US10933114B2, “Nutritional supplements containing a peptide component and uses thereof” (Mead Johnson Nutrition Company, priority 2014, dated 2021)
